Results taken from patent US10660933B2, “Compositions and methods for inhibition of bacterial infections in human endocervix” (priority 2015, dated 2020).

Key:
[1] = system: cytoplasmic Ca2+; assay: Calcium imaging of Ng-inoculated polarized epithelial cells (FluoForte, Fluo-4); type: cell-based, human; conditions: MS11Opa+ and MS11ΔOpa-inoculated polarized epithelial cells, 4 h; 2APB 10 μM, BAPTA 50 μM
Description: Ng inoculation induces Ca^2+-dependent redistribution of active NMII in polarized epithelial cells. A major upstream signaling molecule of MLCK is calmodulin that is activated by Ca^2+. To investigate if Ca^2+ is involved in Ng induced redistribution of active NMII, we determined if Ng inoculation would induce Ca^2+ flux in polarized epithelial cells. We used two Ca^2+ indicators, FluoForte (FIGS. 7A and 7B) and Fluo-4 (FIG. 11) to determine the cytoplasmic Ca^2+ level. Polarized T84 (FIGS. 7A and 7B, and FIG. 11A and FIG. 11B) and HEC-1-B (FIG. 11C and FIG. 11D) were incubated apically with MS11Opa+ or MS11ΔOpa for 4 h. The cells were then loaded with the fluorescent Ca^2+ indicator, and the cell membrane marked by the membrane dye CellMask. Cells were imaged using 3D-CFM (FIG. 7A, and FIGS. 11A and 11C). The mean fluorescence intensity (MFI) of the Ca^2+ dyes in individual cells was measured to estimate the cytoplasmic level of Ca^2+ (FIG. 7B, and FIGS. 11B and 11D). […]
Calcium imaging. […] To quantify the intracellular Ca^2+ level, the cytoplasmic region of individual cells was manually selected based on the CellMask staining in randomly acquired confocal images, and the mean fluorescent intensity (MFI) of Fluoforte and Fluo-4 in the cytoplasmic region was measured using the NIH ImageJ software.

[2] = system: phosphorylated myosin light chain (pMLC); assay: pMLC (active NMII) redistribution in Ng-inoculated polarized T84 cells (3D-CFM); type: cell-based, human; conditions: for junction:non-junction FIR of pMLC: polarized T84, Ng 6 h (Y27632: MS11ΔOpa)
Protocol: Ng induce and Opa suppresses the redistribution of active non-muscle myosin II in polarized and endocervical epithelial cells. […] We examined the cellular distribution of active NMII after 6-h incubation with Ng, using antibody specific for phosphorylated myosin light chain (pMLC) and 3D-CFM. In uninfected polarized T84 (FIGS. 5A and 5C) and HEC-1-B cells (FIG. 10), pMLC was primarily localized at the apical junction. The polarized distribution of pMLC at the apical surface was quantified by the FIR of pMLC at the apical to the lateral (Apical:Lateral) membrane areas in individual cells using CFM images scanning across the apical and basolateral surfaces (FIGS. 5A and 5B). The polarized distribution pMLC at the apical junction was quantified by the FIR of pMLC at the junction to non-junction (Junction:Non-junction) areas of the apical region using CFM images scanning through the apical junction (FIGS. 5C and 5D). The apical inoculation of MS11Opa+ and MS11ΔOpa caused significant increases in apical:lateral FIR in both polarized T84 (FIGS. 5A and 5B) and HEC-1-B cells (FIG. 10), compared to the no Ng control. There were also significant increases in the junction:non-junction FIR in infected polarized T84 cells, compared to non-infected cells (FIGS. 5C and 5D). […] We further noticed that NMII at the apical surface appeared to accumulate at Ng adherent sites (FIG. 5A, middle panels, arrows).
(§1) Immunofluorescence analysis of polarized epithelial cells. Cells were pretreated with or without NMII kinase inhibitors, Y27632 (10 μM, EMD Millipore), ML-7 (10 μM, EMD Millipore) and PIK (100 μM) or Ca2+ inhibitors, 2APB (10 μM, EMD Millipore) and BAPTA (50 μM, EMD Millipore) for 1 h, and incubated with Ng in the presence or absence of the inhibitors for 6 h. Cell were washed and fixed with 4% paraformaldehyde, permeabilized with 1% Triton X100, and stained with anti-E-cadherin (BD Bioscience), anti-pMLC (Cell Signaling Technology, Carlsbad, Calif.), anti-Ng antibodies, and DAPI for nuclei. Cells were analyzed by CFM. Images were acquired as Z-series of 0.37 μm slices, and 3D composites obtained. Epithelial exfoliation will be quantified using xz images as described for the tissue explants. The distribution of E-cadherin and pMLC was quantitatively analyzed by measuring the FIR at the apical junctional to the cytoplasmic area (from xy images) or at the apical to lateral surface area (from xz images) in individual cells.

[3] = system: Neisseria gonorrhoeae MS11; assay: Ng adherence, invasion, and transmigration assays on polarized epithelial cells; type: cell-based
Protocol: Ng adherence, invasion, and transmigration assays. The assays were performed as previously described. Briefly, polarized epithelial cells that were pretreated with or without the inhibitors for 1 h were incubated apically with Ng at 37° C. for 3 h for adherence and 6 h for invasion and transmigration assays with or without the inhibitors. Ng in the basolateral media were cultured and counted as transmigrated bacteria. Cells were washed and lysed to count adherent Ng. Cells were treated with gentamicin, washed, and lysed to count bacteria that were resistant to gentamicin treatment as invaded Ng.

[4] = system: polarized T84 cells; assay: Ng-induced exfoliation of polarized T84 monolayers (3D-CFM); type: cell-based, human; conditions: 6 h, inhibitor 1 h before and during, ML-7 10 μM, PIK 100 μM, Y27632 10 μM
Description: To quantify epithelial exfoliation, the number of Ng associated cells localized on the top of the epithelial monolayer (exfoliated) and the total number of Ng associated epithelial cells was counted by visual inspection in each randomly acquired image, to determine the percentage of exfoliated cells. To estimate the level of Ng penetration into the subepithelium, the number of non-exfoliated epithelial cells (in clearly visible epithelial monolayers) with basal Ng staining and the total number of Ng associated epithelial cells were visually counted to calculate the percentage of infected epithelial cells with Ng penetration into the basolateral side. To evaluate the disruption of the apical junction, the number of Ng associated epithelial cells that lost continuously apical staining of the junctional protein ZO1 and the total number of Ng associated epithelial cells were visually counted to calculate the percentage of Ng associated epithelial cells with apical junction disassembly. To quantify the redistribution of pMLC, the fluorescence intensity ratios (FIR) of pMLC staining at the apical to lateral in individual epithelial cells were determined using average FI as previously described.
as §1

[5] = system: polarized T84 cells; assay: Exfoliation of polarized T84 cells treated with inhibitors alone, without Ng; type: cell-based, human; conditions: no Ng inoculation, 6 h
Protocol: Polarized T84 cells were treated with inhibitors for 6 h, fixed, stained to visualize the cell nuclei, and imaged by 3D-CFM. The percentage of cell moving above the epithelial monolayer (dash lines) was determined from three independent experiments. Scale bar, 5 μm. *p≤0.05.
as §1

[6] = ML-7 10 μM, PIK 100 μM, Y27632 10 μM, 2APB 10 μM, BAPTA 50 μM

SMILES | MFI of the Ca2+ indicators (cytoplasmic Ca2+ level) [1] | accumulation of pMLC at Ng adherent sites ([2]; polarized T84, Ng 6 h) | junction:non-junction FIR of pMLC [2, 6] | apical:lateral FIR of pMLC ([2]; polarized T84, Ng 6 h, ML-7 10 μM, PIK 100 μM, Y27632 10 μM, 2APB 10 μM, BAPTA 50 μM) | transmigration of MS11ΔOpa across the polarized T84 monolayer ([3]; 6 h, ML-7 10 μM, PIK 100 μM, 2APB 10 μM, Y27632 10 μM) | Ng adherence to polarized T84 cells ([3]; MS11ΔOpa, 3 h, with inhibitors) | Ng invasion into polarized T84 cells (gentamicin resistance) ([3]; MS11ΔOpa, 6 h, with inhibitors) | exfoliation of MS11Opa+-infected epithelial cells from T84 monolayers ([4]; MS11Opa+) | exfoliation of MS11ΔOpa-infected epithelial cells from T84 monolayers ([4]; MS11ΔOpa, 2APB 10 μM) | epithelial exfoliation with inhibitors alone [5]
O=C(O)CN(CC(=O)O)c1ccccc1OCCOc1ccccc1N(CC(=O)O)CC(=O)O [BAPTA] | back to the basal level | decreased | decreased | decreased |  |  |  |  |  | 
C[C@@H](N)[C@H]1CC[C@H](C(=O)Nc2ccncc2)CC1 [Y27632] |  |  | further increased |  | had no impact | had no impact | had no impact | did not significantly change the percentage of epithelial exfoliation | did not significantly change the percentage of epithelial exfoliation | 
Cc1ccc2c(c1)C(=O)C1(O)CCN(c3ccccc3)C1=N2 (centres unmarked) [blebbistatin] |  |  |  |  |  |  |  |  |  | increased epithelial exfoliation
